The record followed here is patent EP0908457B1, “3-(1,2-benzisothiazol- and isoxazol-5-Y1)-2,4(1H,3H)-pyrimidinedione or thione and 3-(1,2-benzisothiazol- and isoxazol-5-y1)-4(3H)-pyrimidinone or thione herbicidal agents” (BASF AKTIENGESELLSCHAFT, priority 1997, dated 1999).

Series [1] concerns Oryza sativa, (L.) Tebonnet. Nature of the series: Rice tolerance to post-transplant applications under flooded paddy conditions (Example 187), ORYSAT (Rice, Tebonnet). Conditions: rated three to four weeks after treatment.
The subject of series [2] is Echinochloa oryzoides (Ard.) Fritsch. Briefly: Preemergence weed control under flooded paddy conditions, ECHORC (Watergrass (Calif.)). On herbicidal effect rating, ECHORC: meaning of each grade not given here. It is filed as in vivo. Conditions: preemergence, flooded paddy, rated three to four weeks after treatment.
A further series relates to Cyperus iria. Briefly: Preemergence weed control under flooded paddy conditions, CYPIR (Rice Flatsedge). The following applies: preemergence, flooded paddy, rated three to four weeks after treatment. Type of series: in vivo.
Series [3] relates to Monochoria vaginalis, Presl. Nature of the series: Preemergence weed control under flooded paddy conditions, MOOVA (Monochoria). Type of series: in vivo. The following applies: preemergence, flooded paddy, rated three to four weeks after treatment.
Another series relates to Sagittaria pygmaea, L. Nature of the series: Preemergence weed control under flooded paddy conditions, SAGPY (Arrowhead (Pygmaea)). It is filed as in vivo. Conditions: preemergence, flooded paddy, rated three to four weeks after treatment.

Structures are written as SMILES.

Take `Cn1c(C(F)(F)F)cc(=O)n(-c2ccc3snc(Br)c3c2)c1=O` [Example 36, 3-(3-Bromo-1,2-benzisothiazol-5-yl)-1-methyl-6-(trifluoromethyl)-2,4(1H,3H)-pyrimidinedione]: the “herbicidal effect rating, ORYSAT (rice tolerance)” value (“herbicidal effect rating, ORYSAT” for short) in series [1] (0.0313 kg/ha), in series [1] (0.0625 kg/ha), in series [1] (0.1250 kg/ha) and in series [1] (0.2500 kg/ha) was 1.0 in each case. Moreover, the “herbicidal effect rating, ECHORC” value in series [2] (0.0313 kg/ha), in series [2] (0.0625 kg/ha), in series [2] (0.1250 kg/ha) and in series [2] (0.2500 kg/ha) was 0.0 each time.

With `Cn1c(C(F)(F)F)cc(=O)n(-c2ccc3snc(Cl)c3c2)c1=O` [Example 37, 3-(3-Chloro-1,2-benzisothiazol-5-yl)-1-methyl-6-(trifluoromethyl)-2,4(1H,3H)-pyrimidinedione], the “herbicidal effect rating, ORYSAT” value came out at 0.0 in series [1] (0.0313 kg/ha), 1.0 in series [1] (0.0625 kg/ha), 1.0 in series [1] (0.1250 kg/ha) and 1.0 in series [1] (0.2500 kg/ha). The “herbicidal effect rating, ECHORC” value stood at 4.0 in series [2] (0.0313 kg/ha), 7.0 in series [2] (0.0625 kg/ha), 8.0 in series [2] (0.1250 kg/ha) and 9.0 in series [2] (0.2500 kg/ha).

Take `Cc1ccc(OCC(=O)OC2CCCC2)c(-c2nsc3ccc(-n4c(=O)cc(C(F)(F)F)n(C)c4=O)cc23)c1` [Example 84, Cyclopentyl {{2-{5-[3,6-dihydro-3-methyl-2,6-dioxo-4-(trifluoromethyl)-1(2H)-pyrimidinyl]-1,2-benzisothiazol-3-yl}-p-tolyl}oxy}acetate]: the “herbicidal effect rating, ORYSAT” value in series [1] (0.0313 kg/ha) is given as 3.0; in series [1] (0.0625 kg/ha), 3.0; in series [1] (0.1250 kg/ha), 4.0; in series [1] (0.2500 kg/ha), 7.0. In addition, the “herbicidal effect rating, ECHORC” value in series [2] (0.0313 kg/ha), in series [2] (0.0625 kg/ha), in series [2] (0.1250 kg/ha) and in series [2] (0.2500 kg/ha) was 9.0 throughout.

On to `Cc1ccc(OCC(=O)OC(C)C(C)(C)C)c(-c2nsc3ccc(-n4c(=O)cc(C(F)(F)F)n(C)c4=O)cc23)c1` (stereo not drawn) [Example 85, 1,2,2-Trimethylpropyl {{2-{5-[3,6-dihydro-3-methyl-2,6-dioxo-4-(trifluoromethyl)-1(2H)-pyrimidinyl]-1,2-benzisothiazol-3-yl}-p-tolyl}oxy}acetate], for which the “herbicidal effect rating, ORYSAT” value in series [1] (0.0313 kg/ha) worked out at 0.0; in series [1] (0.0625 kg/ha) it was 0.0; in series [1] (0.1250 kg/ha) it was 0.0; in series [1] (0.2500 kg/ha), 1.0. Also, the “herbicidal effect rating, ECHORC” value in series [2] (0.0313 kg/ha) is given as 8.0; in series [2] (0.0625 kg/ha), 9.0; in series [2] (0.1250 kg/ha), 9.0; in series [2] (0.2500 kg/ha) it was 9.0.

For `Cn1c(C(F)(F)F)cc(=O)n(-c2ccc3snc(CP(=O)(O)O)c3c2)c1=O` [Example 92, {{5-[3,6-Dihydro-3-methyl-2,6-dioxo-4-(trifluoromethyl)-1(2H)-pyrimidinyl]-1,2-benzisothiazol-3-yl}methyl}phosphonic acid], the “herbicidal effect rating, ORYSAT” value amounted to 3.0 in series [1] (0.0313 kg/ha), 5.0 in series [1] (0.0625 kg/ha), 6.0 in series [1] (0.1250 kg/ha) and 6.0 in series [1] (0.2500 kg/ha). Also, the “herbicidal effect rating, ECHORC” value amounted to 4.0 in series [2] (0.0313 kg/ha), 6.0 in series [2] (0.0625 kg/ha), 9.0 in series [2] (0.1250 kg/ha) and 9.0 in series [2] (0.2500 kg/ha).

With `Cn1c(C(F)(F)F)cc(=O)n(-c2ccc3snc(/C=C/C=O)c3c2)c1=O` [Example 291, 1,2-Benzisothiazole-3-acrylaldehyde, 5-[3,6-dihydro-3-methyl-2,6-dioxo-4-(trifluoromethyl)-1(2H)-pyrimidinyl]-, (E)-], the “CYPIR herbicidal effect rating” value in the series on Cyperus iria (Rate 0.0320 kg/ha) was found to be 0.0; with Cyperus iria (Rate 0.0620 kg/ha), 0.0; in the series on Cyperus iria (Rate 0.1250 kg/ha), 9.0; in the series on Cyperus iria (Rate 0.2500 kg/ha), 9.0. For the same molecule, the “MOOVA herbicidal effect rating” value is 0.0 in series [3] (Rate 0.0320 kg/ha), 9.0 in series [3] (Rate 0.0620 kg/ha), 9.0 in series [3] (Rate 0.1250 kg/ha) and 9.0 in series [3] (Rate 0.2500 kg/ha). For the same molecule, the “ORYSAT herbicidal effect rating” value in series [1] (Rate 0.0320 kg/ha), in series [1] (Rate 0.0620 kg/ha), in series [1] (Rate 0.1250 kg/ha) and in series [1] (Rate 0.2500 kg/ha) was 0.0 each time. The “SAGPY herbicidal effect rating” value with Sagittaria pygmaea, L. (Rate 0.0320 kg/ha) was 0.0; with Sagittaria pygmaea, L. (Rate 0.0620 kg/ha), 0.0; in the series with Sagittaria pygmaea, L. (Rate 0.1250 kg/ha), 0.0; with Sagittaria pygmaea, L. (Rate 0.2500 kg/ha), 0.0. Also, the “ECHORC herbicidal effect rating” value in series [2] (Rate 0.0320 kg/ha), in series [2] (Rate 0.0620 kg/ha), in series [2] (Rate 0.1250 kg/ha) and in series [2] (Rate 0.2500 kg/ha) was 0.0 throughout.

On to `COC(=O)COCc1nsc2ccc(-n3c(=O)cc(C(F)(F)F)n(C)c3=O)cc12` [Example 292, Acetic acid, {{5-[3,6-dihydro-3-methyl-2,6-dioxo-4-(trifluoromethyl)-1(2H)-pyrimidinyl]-1,2-benzisothiazol-3-yl}methoxy}-, methyl ester], for which the “CYPIR herbicidal effect rating” value in the series on Cyperus iria (Rate 0.0320 kg/ha), with Cyperus iria (Rate 0.0620 kg/ha), in the series on Cyperus iria (Rate 0.1250 kg/ha) and in the series with Cyperus iria (Rate 0.2500 kg/ha) was 9.0 each time. The “MOOVA herbicidal effect rating” value in series [3] (Rate 0.0320 kg/ha), in series [3] (Rate 0.0620 kg/ha), in series [3] (Rate 0.1250 kg/ha) and in series [3] (Rate 0.2500 kg/ha) was 9.0 in each case. In addition, the “ORYSAT herbicidal effect rating” value in series [1] (Rate 0.0320 kg/ha), in series [1] (Rate 0.0620 kg/ha), in series [1] (Rate 0.1250 kg/ha) and in series [1] (Rate 0.2500 kg/ha) was 0.0 throughout. Moreover, the “SAGPY herbicidal effect rating” value in the series on Sagittaria pygmaea, L. (Rate 0.0320 kg/ha) is 0.0; with Sagittaria pygmaea, L. (Rate 0.0620 kg/ha) it was 0.0; with Sagittaria pygmaea, L. (Rate 0.1250 kg/ha) it was 0.0; in the series on Sagittaria pygmaea, L. (Rate 0.2500 kg/ha) it was 5.0. The “ECHORC herbicidal effect rating” value in series [2] (Rate 0.0320 kg/ha), in series [2] (Rate 0.0620 kg/ha), in series [2] (Rate 0.1250 kg/ha) and in series [2] (Rate 0.2500 kg/ha) was 0.0 throughout.

As to `Cn1c(C(F)(F)F)cc(=O)n(-c2ccc3snc(COCC(=O)O)c3c2)c1=O` [Example 293, Acetic acid, {{5-[3,6-dihydro-3-methyl-2,6-dioxo-4-(trifluoromethyl)-1(2H)-pyrimidinyl]-1,2-benzisothiazol-3-yl}methoxy}-], the “CYPIR herbicidal effect rating” value in the series with Cyperus iria (Rate 0.0320 kg/ha), with Cyperus iria (Rate 0.0620 kg/ha), in the series with Cyperus iria (Rate 0.1250 kg/ha) and with Cyperus iria (Rate 0.2500 kg/ha) was 9.0 throughout. Also, the “MOOVA herbicidal effect rating” value in series [3] (Rate 0.0320 kg/ha), in series [3] (Rate 0.0620 kg/ha), in series [3] (Rate 0.1250 kg/ha) and in series [3] (Rate 0.2500 kg/ha) was 9.0 each time. Moreover, the “ORYSAT herbicidal effect rating” value in series [1] (Rate 0.0320 kg/ha), in series [1] (Rate 0.0620 kg/ha), in series [1] (Rate 0.1250 kg/ha) and in series [1] (Rate 0.2500 kg/ha) was 0.0 throughout. The “SAGPY herbicidal effect rating” value in the series on Sagittaria pygmaea, L. (Rate 0.0320 kg/ha) was determined as 0.0; in the series on Sagittaria pygmaea, L. (Rate 0.0620 kg/ha), 0.0; with Sagittaria pygmaea, L. (Rate 0.1250 kg/ha) it was 0.0; in the series on Sagittaria pygmaea, L. (Rate 0.2500 kg/ha), 6.0. Moreover, the “ECHORC herbicidal effect rating” value in series [2] (Rate 0.0320 kg/ha), in series [2] (Rate 0.0620 kg/ha), in series [2] (Rate 0.1250 kg/ha) and in series [2] (Rate 0.2500 kg/ha) was 0.0 throughout.

For `Cn1c(C(F)(F)F)cc(=O)n(-c2ccc3snc(COCC(=O)NS(C)(=O)=O)c3c2)c1=O` [Example 294, Acetamide, 2-{{5-[3,6-dihydro-3-methyl-2,6-dioxo-4-(trifluoromethyl)-1(2H)-pyrimidinyl]-1,2-benzisothiazol-3-yl}methoxy}-N-(methylsulfonyl)-], the “CYPIR herbicidal effect rating” value turned out to be 0.0 with Cyperus iria (Rate 0.0320 kg/ha), 0.0 in the series with Cyperus iria (Rate 0.0620 kg/ha), 3.0 with Cyperus iria (Rate 0.1250 kg/ha) and 9.0 with Cyperus iria (Rate 0.2500 kg/ha). Also, the “MOOVA herbicidal effect rating” value in series [3] (Rate 0.0320 kg/ha), in series [3] (Rate 0.0620 kg/ha), in series [3] (Rate 0.1250 kg/ha) and in series [3] (Rate 0.2500 kg/ha) was 9.0 in each case. For the same molecule, the “ORYSAT herbicidal effect rating” value in series [1] (Rate 0.0320 kg/ha), in series [1] (Rate 0.0620 kg/ha), in series [1] (Rate 0.1250 kg/ha) and in series [1] (Rate 0.2500 kg/ha) was 0.0 throughout. The “SAGPY herbicidal effect rating” value is listed as 0.0 in the series on Sagittaria pygmaea, L. (Rate 0.0320 kg/ha); 0.0 in the series with Sagittaria pygmaea, L. (Rate 0.0620 kg/ha); 0.0 with Sagittaria pygmaea, L. (Rate 0.1250 kg/ha); 0.0 in the series on Sagittaria pygmaea, L. (Rate 0.2500 kg/ha). For the same molecule, the “ECHORC herbicidal effect rating” value in series [2] (Rate 0.0320 kg/ha), in series [2] (Rate 0.0620 kg/ha), in series [2] (Rate 0.1250 kg/ha) and in series [2] (Rate 0.2500 kg/ha) was 0.0 in each case.
